From patent publication US20230404989A1, “GRK2 INHIBITION BY PAROXETINE AMELIORATES OSTEOARTHRITIS” (THE PENN STATE RESEARCH FOUNDATION, priority 2020, published 2023)
“Also recorded” adds a separate entry of the source.

What was measured:
Format in all cases: in vivo, mouse
[1] = system: ADAMTS5, MMP13, Aggrecan Neo, aggrecan in tibial articular cartilage; assay: IF staining of tibial articular cartilage of drug-treated DMM mice; conditions: for aggrecan expression (IF staining, whole tibial articular surface): daily ip week 8 to 12, versus vehicle; for ADAMTS5 expression (IF staining, uncalcified cartilage) / Aggrecan Neo expression (IF staining, uncalcified cartilage) / MMP13 expression (IF staining, uncalcified cartilage): daily treatment week 8 to 12
Description: Drug treatment studies: In twelve-week old male wild type C57BL/6 mice that received DMM surgeries, vehicle (PBS), paroxetine (5 mg/kg/day), fluoxetine (5 mg/kg/day), gallein (10 mg/kg/day) or indomethacin (2.5 mg/kg/day) were administered daily by ip injection. Drug treatment was initiated 8 weeks following DMM to determine the role of GRK2 signaling in the progression of OA. Paraffin sections were deparaffinized in three changes of xylene for five minutes each, rehydrated in ethanol (two changes of 100% ethanol, followed by two changes of 95% ethanol, followed by one change of 70% ethanol) and rinsed twice in deionized water. Antigen retrieval was performed for 30 minutes at 37° C. using 0.4% pepsin (Sigma P-7000) in 0.1M hydrochloric acid (HCl) and was followed by permeabilization for 30 minutes at room temperature using Triton X in tris buffered saline (TBS). Sections were then blocked for 1 hour at room temperature in 10% normal goat serum in 1×TBS. Tissue sections were incubated overnight at 4° C. with the rabbit anti-mouse primary antibody specific for the target protein (detailed in Table 1). Following three 5-minute washes in 1×TBS, slides were incubated for 1 hour at room temperature with biotinylated goat anti-rabbit secondary antibody (Life Technologies, Waltham, MA, USA), washed again with 3 changes of 1×TBS and incubated for 1 hour at room temperature with Alexa fluor 647 Streptavidin. Finally, slides were washed with three changes of 1×TBS for 5 minutes each, followed by one wash with 1×TBS with tween 20 (TBST), and a final 5-minute wash in 1×TBS. Mounting and nuclear staining was performed using ProLong™ Gold antifade reagent with DAPI (Invitrogen, Waltham, MA, USA).

[2] = system: DMM mice; assay: DMM drug treatment study: OARSI scoring and histomorphometry of knee cartilage; conditions: for cartilage degeneration (Safranin-O and Fast Green histology) / chondro-protective and matrix-regenerative effects (overall) / total number of chondrocytes / uncalcified cartilage area: daily ip week 8 to 12; for OARSI score / number of matrix producing chondrocytes: daily ip week 8 to 12, versus vehicle
Description: Drug treatment studies: In twelve-week old male wild type C57BL/6 mice that received DMM surgeries, vehicle (PBS), paroxetine (5 mg/kg/day), fluoxetine (5 mg/kg/day), gallein (10 mg/kg/day) or indomethacin (2.5 mg/kg/day) were administered daily by ip injection. Drug treatment was initiated 8 weeks following DMM to determine the role of GRK2 signaling in the progression of OA.
Twelve-week-old male mice were administered DMM surgery to the right knee and sham surgery to the left knee as described (S. S. Glasson, Osteoarthritis. Cartilage. 15, 1061-1069 (2007)). Briefly, mice were anesthetized via intraperitoneal injection of ketamine (60 mg/kg) and xylazine (4 mg/kg), and a 5-mm-long incision was made on the medial side of the knee. Under a dissecting microscope, an incision was made along the medial side of the patellar tendon, opening the joint space. Using a #11 scalpel, the medial meniscotibial ligament (MMTL) was transected, enabling the medial meniscus to move freely. A similar skin incision was made in sham knees, but the joint structure was not disturbed. For the sham group, both right and left knees had sham surgeries. After surgery, 4-0 silk sutures were used to close the incision using an interrupted pattern. Mice were provided analgesia via intraperitoneal injection of buprenorphine (0.5 mg/kg) every 12 hours for 72 hours, and sutures were removed after 7 days. Mice were sacrificed, at the indicated time points, by anesthesia followed with whole animal perfusion using 10% NBF, knees were harvested and fixed for 7 days in 10% NBF, decalcified for 7 days in 10% w/v EDTA, embedded in paraffin, and 10-μm sections were cut and mounted for Safranin-O/Fast Green or IF staining.
Semi-quantitative histopathologic grading was performed using a derivative of the Chambers' scoring system that has been established by the OARSI histopathology initiative as the standard method for grading of mouse cartilage degeneration. Based on this system, cartilage grading was carried out using Safranin-O/Fast Green-stained midsagittal sections. Three sections from representative levels (50 μm apart) of the medial compartment of the joint were selected for each sample and, which were evaluated in a randomized, blinded manner by 3 laboratory members. The 3 scores were averaged to calculate the section score, and the sample score was then calculated by averaging the scores obtained from the three levels. Grading was performed using the following scale: 0=normal cartilage, 0.5=loss of proteoglycan stain without cartilage damage, 1=mild superficial fibrillation, 2=fibrillation and/or clefting extending below the superficial zone, 3=mild (<25%) loss of cartilage, 4=moderate (25-50%) loss of cartilage, 5=severe (50-75%) loss of uncalcified cartilage, and 6=eburnation with >75% loss of cartilage. Grading was performed by three blinded observers (F.K., M.J.Z., and E.R.S.). Observer agreement was evaluated in pairs via calculation of a weighted kappa coefficient, using Fleiss-Cohen weights, as we have described. The F.K. versus M.J.Z. coefficient was 0.92, the F.K. versus E.R.S. coefficient was 0.94, and the M.J.Z. versus E.R.S coefficient was 0.89, all indicative of strong agreement between the observers.
Using Safranin-O/Fast Green-stained sections, the OsteoMetrics system was used to quantify the above parameters on three sections from representative levels (50 μm apart) of the medial compartment of the joint for each sample. Live images of the center of the knee joint were collected through an Olympus microscope (10× objective) outfitted with a camera, a stylus was used to trace the regions of interest (ROIs). A blinded observer quantified uncalcified articular cartilage area, total chondrocyte number and matrix-producing chondrocyte number using the built-in area calculation algorithms and quantification functions of the OsteoMeasure® system. […]

[3] = system: DMM mice; assay: Response threshold to mechanical pain stimulus in DMM mice; conditions: daily treatment week 8 to 12, measured 12 weeks following DMM
Description: Paroxetine attenuates pain sensitivity of DMM mice. Response threshold to mechanical pain stimulus measured in sham mice and DMM mice 12 weeks following DMM. DMM mice received respective daily treatments from week 8 until week 12 following DMM: vehicle (V) or Paroxetine (Px). *P<0.05 & ***P<0.001.

Question: Which “aggrecan expression (IF staining, whole tibial articular surface)” value [1] does the source give for `O=C1OC2(c3ccccc31)c1ccc(O)c(O)c1Oc1c2ccc(O)c1O` [gallein] here?
Answer: enhanced

Question: And the “ADAMTS5 expression (IF staining, uncalcified cartilage)” value [1]?
Answer: significantly decreased

Question: And the “Aggrecan Neo expression (IF staining, uncalcified cartilage)” value [1]?
Answer: significantly decreased

Question: What about the “MMP13 expression (IF staining, uncalcified cartilage)” value [1] of the same compound?
Answer: significantly decreased

Question: What about the “cartilage degeneration (Safranin-O and Fast Green histology)” value [2] of the same compound?
Answer: reduced

Question: And the “chondro-protective and matrix-regenerative effects (overall)” value [2]?
Answer: exert both a chondro-protective and a matrix-regenerative effects; also recorded: equivalent to that of paroxetine

Question: And the “total number of chondrocytes” value [2]?
Answer: preserved

Question: And the uncalcified cartilage area [2]?
Answer: preserved

Question: What about the OARSI score [2] of the same compound?
Answer: lower

Question: And the “number of matrix producing chondrocytes” value [2]?
Answer: higher number

Question: How did the “aggrecan expression (IF staining, whole tibial articular surface)” value [1] turn out when `Fc1ccc([C@@H]2CCNC[C@H]2COc2ccc3c(c2)OCO3)cc1` [paroxetine] was run?
Answer: enhanced

Question: What about the “ADAMTS5 expression (IF staining, uncalcified cartilage)” value [1] of the same compound?
Answer: significantly decreased

Question: And the “Aggrecan Neo expression (IF staining, uncalcified cartilage)” value [1]?
Answer: significantly decreased

Question: What about the “MMP13 expression (IF staining, uncalcified cartilage)” value [1] of the same compound?
Answer: significantly decreased

Question: And the “pain sensitivity (response threshold to mechanical pain stimulus)” value [3]?
Answer: attenuates

Question: And the “cartilage degeneration (Safranin-O and Fast Green histology)” value [2]?
Answer: reduced

Question: What about the “chondro-protective and matrix-regenerative effects (overall)” value [2] of the same compound?
Answer: exert both a chondro-protective and a matrix-regenerative effects

Question: What about the “total number of chondrocytes” value [2] of the same compound?
Answer: preserved

Question: What about the uncalcified cartilage area [2] of the same compound?
Answer: preserved

Question: And the OARSI score [2]?
Answer: lower

Question: And the “number of matrix producing chondrocytes” value [2]?
Answer: higher number
